In one assay the target is SARS-CoV-2 3CL-protease (Severe acute respiratory syndrome coronavirus 2 (2019-nCoV) (SARS-CoV-2), UniProt P0DTD1). The assay can be described thus: SARS-CoV-2 3C-Like (3CL) Protease Fluorescence Assay (FRET). The class given is biochemical.
Assay [1] deals with 229E human corona virus (hCoV). The assay can be described thus: 229E Live Virus Assay (MRC-5 cells, CPE, ATPlite readout). The class given is cell-based, hCoV-229E. The settings on record: Human coronavirus 229E, MRC5, 144 h, read-out: 229E EC50. In general terms: In ATP-based viability assays light output follows the ATP content of the culture.

Each structure is given as a SMILES string.

Broadly, the IC50 is the concentration that inhibits the measured activity by half. A higher IC50 goes with lower potency. The EC50 is the concentration needed to bring the measured effect to its halfway point. In turn, `COC(=O)N[C@@H](CC1CC1)C(=O)N(C)[C@@H](CC(C)C)C(=O)N1C[C@]2(C[C@H]1C#N)C(=O)Nc1ccccc12` [Example 16] showed an IC50 on SARS-CoV-2 3CL-protease below 100 nM. Also, the EC50 in assay [1] was below 100 nM.
In the case of `CC(C)C[C@@H](C(=O)N1C[C@]2(C[C@H]1C#N)C(=O)Nc1ccccc12)N(C)C(=O)[C@H](CC1CC1)NC(=O)c1ccc(F)cc1` [Example 17], the IC50 on SARS-CoV-2 3CL-protease was below 100 nM. The concentration for a half-maximal effect (EC50) in assay [1] was below 100 nM.
On SARS-CoV-2 3CL-protease, `CC(C)C[C@@H](C(=O)N1C[C@]2(C[C@H]1C#N)C(=O)Nc1ccccc12)N(C)C(=O)[C@H](Cc1ccc(F)cc1)NC(=O)c1cnccn1` [Example 18] returned an IC50 below 100 nM. Also, the EC50 in assay [1] was below 100 nM.
In the case of `CC(C)C[C@@H](C(=O)N1C[C@]2(C[C@H]1C#N)C(=O)Nc1ccccc12)N(C)C(=O)[C@H](Cc1ccc(F)cc1)NC(=O)c1ccn(C)n1` [Example 19], at SARS-CoV-2 3CL-protease, the IC50 was below 100 nM. Further, the EC50 in assay [1] was below 100 nM.
With `CC(C)C[C@@H](C(=O)N1C[C@]2(C[C@H]1C#N)C(=O)Nc1ccccc12)N(C)C(=O)[C@@H](NC(=O)OCc1ccccc1)C1CCCCC1` [Example 20], at SARS-CoV-2 3CL-protease, the half-maximal inhibitory concentration (IC50) was below 100 nM. In addition, the EC50 in assay [1] was below 100 nM.
With `CC(C)C[C@@H](C(=O)N1C[C@]2(C[C@H]1C#N)C(=O)Nc1ccccc12)N(C)C(=O)[C@@H](NC(=O)C(F)(F)F)C1CCCCC1` [Example 21], the IC50 at SARS-CoV-2 3CL-protease was below 100 nM. The EC50 in assay [1] is below 100 nM.
With `CC(C)C[C@@H](C(=O)N1C[C@]2(C[C@H]1C#N)C(=O)Nc1ccccc12)N(C)C(=O)C(NC(=O)OCc1ccccc1)c1ccccc1` (stereo partly drawn) [Example 22], on SARS-CoV-2 3CL-protease, the IC50 is below 100 nM. In addition, the EC50 in assay [1] was below 100 nM.
Turning to `COC(=O)N[C@H](C(=O)N(C)[C@@H](CC(C)C)C(=O)N1C[C@]2(C[C@H]1C#N)C(=O)Nc1ccccc12)C1CCCCC1` [Example 23], on SARS-CoV-2 3CL-protease, the IC50 is below 100 nM. Besides, in assay [1], the EC50 lay within 100 to 1000 nM.
Taken in the same sequence, the figures for `CC(C)C[C@@H](C(=O)N1C[C@]2(C[C@H]1C#N)C(=O)Nc1ccccc12)N(C)C(=O)[C@H](CC1CCC1)NC(=O)OCc1ccccc1` [Example 24] were below 100 nM and below 100 nM.
For `CC(C)C[C@@H](C(=O)N1C[C@]2(C[C@H]1C#N)C(=O)Nc1ccccc12)N(C)C(=O)[C@H](CC(C)(C)C)NC(=O)OCc1ccccc1` [Example 25] the same measures were below 100 nM and below 100 nM.
Taken in the same sequence, the figures for `CC(C)C[C@@H](C(=O)N1C[C@]2(C[C@H]1C#N)C(=O)Nc1ccccc12)N(C)C(=O)[C@H](CC(C)(C)C)NC(=O)C(F)(F)F` [Example 26] were below 100 nM and below 100 nM.
On SARS-CoV-2 3CL-protease, `CC(C)C[C@@H](C(=O)N1C[C@]2(C[C@H]1C#N)C(=O)Nc1ccccc12)N(C)C(=O)[C@H](CC1CCC1)NC(=O)C(F)(F)F` [Example 27] yielded an IC50 below 100 nM. Moreover, the EC50 in assay [1] was below 100 nM.
Consider `CN(C(=O)[C@@H](NC(=O)OCc1ccccc1)C(C)(C)C)[C@@H](Cc1ccccc1)C(=O)N1C[C@]2(C[C@H]1C#N)C(=O)Nc1ccccc12` [Example 28], for which, on SARS-CoV-2 3CL-protease, the IC50 is below 100 nM. Besides, in assay [1], the EC50 was in the range of 100 to 1000 nM.
Taken in the same sequence, the figures for `CN(C(=O)[C@@H](N)C(C)(C)C)[C@@H](Cc1ccccc1)C(=O)N1C[C@]2(C[C@H]1C#N)C(=O)Nc1ccccc12` [Example 29] were below 100 nM and 100 to 1000 nM.
For `CN(C(=O)[C@@H](NCc1cc(F)c(F)cc1F)C(C)(C)C)[C@@H](Cc1ccccc1)C(=O)N1C[C@]2(C[C@H]1C#N)C(=O)Nc1ccccc12` [Example 30] the same measures were below 100 nM and 100 to 1000 nM.
For `CC(C)C[C@@H](C(=O)N1C[C@]2(C[C@H]1C#N)C(=O)Nc1ccccc12)N(C)C(=O)[C@H](CC(C)(C)C)N(C)C(=O)OCc1ccccc1` [Example 32] the same measures were below 100 nM and below 100 nM.
At SARS-CoV-2 3CL-protease, `CC(C)C[C@@H](C(=O)N1C[C@]2(C[C@H]1C#N)C(=O)Nc1ccccc12)N(C)C(=O)[C@H](CC(C)(C)C)NC(=O)c1ccc(F)cc1` [Example 34] displayed an IC50 below 100 nM. Also, the EC50 in assay [1] is below 100 nM.
On SARS-CoV-2 3CL-protease, `CC(C)C[C@@H](C(=O)N1C[C@]2(C[C@H]1C#N)C(=O)Nc1ccccc12)N(C)C(=O)[C@H](CC1CCC1)NC(=O)c1ccc(F)cc1` [Example 35] displayed an IC50 below 100 nM. For the same compound, the EC50 in assay [1] is below 100 nM.
`CC(C)C[C@H](NC(=O)[C@@H](NC(=O)OCc1ccccc1)C(C)(C)C)C(=O)N1C[C@]2(C[C@H]1C#N)C(=O)Nc1ccccc12` [Example 36]: the IC50 against SARS-CoV-2 3CL-protease is below 100 nM. For the same compound, the EC50 in assay [1] lay within 100 to 1000 nM.
On SARS-CoV-2 3CL-protease, `Cc1cc(C(=O)N[C@@H](Cc2ccc(F)cc2)C(=O)N(C)[C@@H](CC(C)(C)C)C(=O)N2C[C@]3(C[C@H]2C#N)C(=O)Nc2ccccc23)no1` [Example 39] gave an IC50 below 100 nM. In assay [1], the EC50 was below 100 nM.
At SARS-CoV-2 3CL-protease, `Cc1cc(C(=O)N[C@H](C(=O)N(C)[C@@H](CC(C)C)C(=O)N2C[C@]3(C[C@H]2C#N)C(=O)Nc2ccccc23)C2CCCCC2)no1` [Example 40] had an IC50 below 100 nM. In addition, in assay [1], the EC50 is 100 to 1000 nM.
On SARS-CoV-2 3CL-protease, `CC(=O)N[C@@H](CC1CC1)C(=O)N(C)[C@@H](CC(C)C)C(=O)N1C[C@]2(C[C@H]1C#N)C(=O)Nc1ccccc12` [Example 41] gave an IC50 below 100 nM. Besides, the EC50 in assay [1] was below 100 nM.
In the case of `CC(C)C[C@@H](C(=O)N1C[C@]2(C[C@H]1C#N)C(=O)Nc1ccccc12)N(C)C(=O)[C@H](CC1CCC1)NC(=O)C(C)(C)C` [Example 42], the IC50 against SARS-CoV-2 3CL-protease was below 100 nM. Further, the EC50 in assay [1] is below 100 nM.
In turn, `CC(C)C[C@@H](C(=O)N1C[C@]2(C[C@H]1C#N)C(=O)Nc1ccccc12)N(C)C(=O)[C@H](CC(C)(C)C)NC(=O)C(C)(C)C` [Example 43] yielded an IC50 at SARS-CoV-2 3CL-protease below 100 nM. Also, the EC50 in assay [1] was below 100 nM.
`CC(=O)N(C)[C@@H](CC(C)(C)C)C(=O)N(C)[C@@H](CC(C)C)C(=O)N1C[C@]2(C[C@H]1C#N)C(=O)Nc1ccccc12` [Example 44]: the IC50 on SARS-CoV-2 3CL-protease was below 100 nM. In addition, in assay [1], the EC50 was in the range of 100 to 1000 nM.
Taken in the same sequence, the figures for `CC(C)C[C@@H](C(=O)N1C[C@]2(C[C@H]1C#N)C(=O)Nc1ccccc12)N(C)C(=O)[C@H](CC1CCC1)NC(=O)c1cc2c(F)cc(F)c(F)c2[nH]1` [Example 45] were below 100 nM and 100 to 1000 nM.
For `CC(C)[C@H](NC(=O)OC(C)(C)C)C(=O)N(C)[C@@H](Cc1ccccc1)C(=O)N1C[C@]2(C[C@H]1C#N)C(=O)Nc1ccccc12` [Example 47] the same measures were below 100 nM and below 100 nM.
At SARS-CoV-2 3CL-protease, `CC(C)[C@@H](NC(=O)OC(C)(C)C)C(=O)N(C)[C@@H](Cc1ccccc1)C(=O)N1C[C@]2(C[C@H]1C#N)C(=O)Nc1ccccc12` [Example 48] returned a half-maximal inhibitory concentration (IC50) below 100 nM. Also, the EC50 in assay [1] was below 100 nM.
For the compound `CC(C)C[C@@H](C(=O)N1C[C@]2(C[C@H]1C#N)C(=O)Nc1ccccc12)N(C)C(=O)[C@@H](NC(=O)OCc1ccccc1)C(C)C` [Example 49], at SARS-CoV-2 3CL-protease, the IC50 is below 100 nM. Besides, the EC50 in assay [1] was below 100 nM.
With `CC(C)C[C@@H](C(=O)N1C[C@]2(C[C@H]1C#N)C(=O)Nc1ccccc12)N1CC[C@H](NC(=O)C(F)(F)F)C1=O` [Example 50], the IC50 on SARS-CoV-2 3CL-protease fell in the range of 100 to 1000 nM. Besides, the EC50 in assay [1] was above 1000 nM.

(Values after patent US11325916B1, “Spiropyrrolidine derived antiviral agents” (priority 2021, dated 2022).)
